US20200268864A1, “CANCER VACCINE COMPOSITIONS AND METHODS FOR USING SAME TO TREAT CANCER” (Dana-Farber Cancer Institute, Inc., priority 2017, published 2020)

Legend:
[1] = tested on: STING pathway in BMDCs co-cultured with PPM cells; assay: Co-culture of BMDCs with olaparib-treated PPM tumor cells; type: cell-based, mouse
Protocol: Blood was obtained by retro-orbital sampling at intermediate time points or experimental end points. Blood cells and plasma/sera were separated by centrifugation at 1,500×g for 5 min. at 4° C. Plasmaisera were sent out to Eve Technologies for cytokine array analysis (Chemokine Array 31-Plex and Mouse Procarta IFN 2-plex Featured Assay). Plasma/sera were applied to ELISA according to manufacturer's instructions. For in vitro experiments, cell culture supernatants were obtained by centrifugation at 1,500×g for 5 min. at 4° C. to remove all debris and cells, and were then subjected to ELISA analysis. IFN-β was detected using the LEGEND MAX™ Mouse IFN-β ELISA Kit (BioLegend).
Bone marrow cells were isolated from FVB/NJ mice and cultured in RPMI-1640 containing 10% FBS and 20 ng/ml GM-CSF. BMDCs (bone marrow derived dendritic cells) were harvested for in vitro co-culture assay on day 7 to day 10. About 3×10^5 PBM or PPM tumor cells were cultured in a 6-well plate for 24 hr. and then treated with DMSO or olaparib. After 24 hr incubation with DMSO, olaparib, or olaparib in combination with other drugs (cell cycle inhibitor or apoptosis inhibitor), drugs were removed and tumor cells were washed twice with PBS. BMDCs were added and co-cultured with PBM or PPM cells at a ratio of 1:1 in 1.5 ml culture media in the presence of GM-CSF (20 ng/ml) and lipofectamine (2 μl) for 24 hr. […]

PPM cells = assay: Cytosolic dsDNA (PicoGreen) and micronuclei staining, PPM cells; type: cell-based, mouse; details: 2.5 μM, 24 h
Protocol: PBM and PPM cells were cultured on chambered cell culture slides (BD Falcon). Cells were treated with 2.5 μM olaparib or vehicle control (DMSO) for 24 hours. Following the treatment, cells were incubated with culture media containing PicoGreen double-stranded DNA stain (200-fold dilution, Life Technologies). After one-hour incubation, cells were fixed with 4% paraformaldehyde in PBS (Santa Cruz Biotechnology) for 10 minutes. Cells were then washed twice with PBS and stained with 300 nM DAPI (Thermo Fisher Scientific) for 10 minutes. Coverslips were mounted using ProLong Diamond Antifade Mountant (Thermo Fisher Scientific). Staining was imaged using a Leica SP5X laser scanning confocal microscope.

[2] = tested on: PP tumors (Pten−/−; Trp53−/−); assay: PP tumor growth after intratumoral injection of PBM or PP cells plus olaparib; type: in vivo, mouse; details: 10^6 cells IT on day 1, 5, 9; olaparib 50 mg/kg/day IP from day 1
Protocol: All animal experiments described in this study were performed according to the animal protocols approved by the DFCI Institutional Animal Care and Use Committee. Pten^−/−; Trp53^−/− (termed PP) mammary epithelial tumor cells were derived from syngeneic FVB/N genetically engineered mouse model of breast tumors driven by concurrent loss of PTEN and P53 (K14-Cre/Pten^L/L, Trp53^L/L). 10^6 PP cells in 100 μl of 40% Matrigel® Matrix (Corning) in DMEM were injected into the mammary fat pad of FVB/N1 mice. When tumors were about 100-200 mm^3 in volume, three injections of 10^6 of Trp53^−/−; Brca1^−/−; c-Myc (termed PBM) ovarian surface epithelial tumor cells or PP cells were administered intraturnorally (IT) on day 1, 5, and 9, respectively. Mice were also administered 50 mg/kg/day of olaparib (AZD2281) in 10% DMSO via intraperitoneal injection (IP) from day 1. Olaparib was prepared by diluting 100 mg/ml stocks in DMSO with 10% of 2-hydroxyl-propyl-β-cyclodextrine (Sigma) in PBS. In another cohort of PP tumor, two doses of DMXAA (Sigma, 500 μg/dose) resuspended in 7.5% of NaHCO3 or vehicle control were injected IT over a one-week period. Tumor volume was calculated using the formula: V=0.52×length×width×width.

Question: For `O=C(c1cc(Cc2n[nH]c(=O)c3ccccc23)ccc1F)N1CCN(C(=O)C2CC2)CC1` [olaparib, Olaparib], which “STING-dependent activation of BMDCs (IFNβ and CXCL10 expression)” value [1] is on record?
Answer: The value was “not observed”.

Question: What about the “cytosolic dsDNAs and micronuclei” value (PPM cells) of the same compound?
Answer: Its value is “not”.

Question: What about the PP tumor growth [2] of the same compound?
Answer: Its PP tumor growth is “suppressed the growth of PP tumors”.
